The values below come from the supplement of paper PMC3974653.

Structures can show the parent of a compound that is named as a salt.

In this experiment the test system is MTT (mouse pheochromocytoma). The experiment is described as follows: IC50 of cell viability (ATP content). The following applies: (24 or 48 h). The gist of the method: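 After overnight culture at 37°C, 5% CO2 in white 1536-well plates, MTT mouse pheochromocytoma cells were given 23 nl of library compound in DMSO by pintool across 8 concentrations, spanning final 0.5 nM to 46 µM. Following 24 or 48 hrs, CellTiter-Glo luminescence was read after 15 minutes and normalised against positive-control (100%) and DMSO (0%) wells. A four-parameter logistic model provided the IC50.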

`O=C1/C=C(OC2=CC=CC=C12)/C3=CC=CC=C3` [Flavone]: the “IC50 of cell viability” value was more than 46 µM.
The figure for `C\C1=C(\OC2=C(C=CC=C2C(=O)OCCN3CCCCC3)C1=O)C4=CC=CC=C4` [Flavoxate hydrochloride] is more than 46 µM; for `CN1CCC(O)(c2ccc(F)cc2)C(C(=O)c2ccc(F)cc2)C1` (stereo not given) [Flazalone] it is more than 46 µM; for `CN(C)CCC=C1C2=C(C=CC=C2)\C=C/C3=C1C=CC=C3` [Flexeril] it is more than 46 µM.
For the compound `CO[C@@]1(NC(=O)CSC(F)F)C(=O)N2C(C(=O)O)=C(CSc3nnnn3CCO)CO[C@@H]21` [Flomoxef], the “IC50 of cell viability” value is more than 46 µM.
As to `C[S+](=O)([O-])c1ccc([C@H](O)[C@H](CF)NC(=O)C(Cl)Cl)cc1` [Florfenicol], the “IC50 of cell viability” value was more than 46 µM.
The figure for `CN1/C=C(/[S+](C)[O-])C(=O)C2=C1C=C(F)C=C2` (stereo not given) [Flosequinan] is more than 46 µM.
For `CC1=C(C(=O)N[C@H]2[C@@H]3SC(C)(C)[C@H]([N@@]3C2=O)C(O)=O)C(=NO1)C4=C(Cl)C=CC=C4F` [Floxacillin] the value was more than 46 µM.
The figure for `OC[C@H]1O[C@H](C[C@@H]1O)N2\C=C(F)/C(=O)NC2=O` [Floxuridine] is more than 46 µM.
In the case of `O=C(NC(=O)c1c(F)cccc1F)Nc1ccc(Cl)c(Oc2ncc(C(F)(F)F)cc2Cl)c1` [Fluazuron], the “IC50 of cell viability” value was more than 46 µM.
For `NC/1=N/C(=O)N/C=C1F` [Flucytosine] the value was more than 46 µM; for `CC(=O)[C@@]1(O)CC[C@@H]2[C@@H]3CCC/4=C/C(=O)CC[C@]4(C)[C@]3(F)[C@@H](O)C[C@]12C` [Flugestone], more than 46 µM; for `O=C1c2ccccc2C(=O)C1c1ccc(F)cc1` [Fluindiona], more than 46 µM.
With `C[C@@H]1C[C@H]2[C@@H]3C[C@H](F)C/4=C/C(=O)/C=C\[C@]4(C)[C@@]3(F)[C@@H](O)C[C@]2(C)[C@@]1(O)C(=O)COC(=O)C(C)(C)C` [Flumethasone pivalate], the “IC50 of cell viability” value was more than 46 µM.
For the compound `C[C@@H]1C[C@@H]2[C@@H]3C[C@@H](F)\C4=C\C(=O)\C=C/[C@]4(C)[C@@]3(F)[C@H](O)C[C@@]2(C)[C@@]1(O)C(=O)CO` [Flumethasone], the “IC50 of cell viability” value is more than 46 µM.
`CC1(C)O[C@@H]2C[C@@H]3[C@@H]4C[C@@H](F)\C5=C\C(=O)\C=C/[C@]5(C)[C@H]4[C@H](O)C[C@@]3(C)[C@]2(O1)C(=O)CO` [Flunisolide]: the “IC50 of cell viability” value is more than 46 µM.
`CNC[C@H](O)[C@H](O)[C@H](O)[C@H](O)CO.Cc1c(Nc2ncccc2C(=O)O)cccc1C(F)(F)F` [Flunixin meglumine]: the “IC50 of cell viability” value was more than 46 µM.
As for `CC1(C)O[C@@H]2C[C@H]3[C@@H]4C[C@H](F)C/5=C/C(=O)/C=C\[C@]5(C)[C@@]4(F)[C@@H](O)C[C@]3(C)[C@@]2(O1)C(=O)CO` [Fluocinolone acetonide], the “IC50 of cell viability” value was more than 46 µM.
For `O=C1OC2(c3ccc(O)cc3Oc3cc(O)ccc32)c2ccccc21` [Fluorescein (free acid)] the value was more than 46 µM; for `O=C(O)c1ccccc1-c1c2ccc(=O)cc-2oc2cc(O)ccc12` [Fluorescein sodium], more than 46 µM.
The figure for `C[C@@H]\1C[C@@H]2[C@H]3CC[C@](O)(C(C)=O)[C@]3(C)C[C@H](O)[C@]2(F)[C@@]4(C)\C=C/C(=O)/C=C14` [Fluorometholone] is more than 46 µM; for `CC1(O)CCC2C3CCC4=CC(=O)CCC4(C)C3(F)C(O)CC21C` (stereo not given) [Fluoxymesterone] it is more than 46 µM.
The figure for `CN1CCN(C2=Nc3cc(F)ccc3Cc3ccccc32)CC1` [Fluperlapine] is more than 46 µM; for `CCOC(=O)Nc1ccc(NCc2ccc(F)cc2)nc1N` [Flupirtine maleate salt] it is more than 46 µM; for `CCOC(=O)Nc1ccc(NCc2ccc(F)cc2)nc1N.O=C(O)/C=C\C(=O)O` [Flupirtine maleate] it is more than 46 µM.
